Test results taken from PubChem BioAssay AID602191 (Broad Institute, 2012).
Activity calls are given as the source filed them.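 Rule for the calls: active = fitted curve reaches 40% activation at a concentration no higher than the top valid tested dose; inconclusive = flat fit between 30% and 70% activation, or poor fit; inactive = uptake decrease, flat fit within 30% of zero, the rest.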

Target: Scavenger receptor class B member 1 (Mus musculus) (UniProt Q61009)
Experiment: enhancers of DiI-HDL lipid transfer via SR-BI – cell-based, ldlA[mSR-BI] CHO, DiI fluorescence, cherry-pick, dose response (AID 602191);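 note: cell fluorescence from internalized DiI-labeled HDL after washing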;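 for AC40: potency of activators raising HDL uptake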;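 for activation (HDL uptake increase): 0% = median of DMSO wells and 100% = twice the DMSO signal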
Settings: ldlA[mSR-BI] CHO cells, 3 h; for activation (HDL uptake increase): at 35 µM (top of the series); for AC40: DiI-HDL uptake fluorescence

Sequence of Scavenger receptor class B member 1 (Mus musculus) (Q61009 whole entry, looked up): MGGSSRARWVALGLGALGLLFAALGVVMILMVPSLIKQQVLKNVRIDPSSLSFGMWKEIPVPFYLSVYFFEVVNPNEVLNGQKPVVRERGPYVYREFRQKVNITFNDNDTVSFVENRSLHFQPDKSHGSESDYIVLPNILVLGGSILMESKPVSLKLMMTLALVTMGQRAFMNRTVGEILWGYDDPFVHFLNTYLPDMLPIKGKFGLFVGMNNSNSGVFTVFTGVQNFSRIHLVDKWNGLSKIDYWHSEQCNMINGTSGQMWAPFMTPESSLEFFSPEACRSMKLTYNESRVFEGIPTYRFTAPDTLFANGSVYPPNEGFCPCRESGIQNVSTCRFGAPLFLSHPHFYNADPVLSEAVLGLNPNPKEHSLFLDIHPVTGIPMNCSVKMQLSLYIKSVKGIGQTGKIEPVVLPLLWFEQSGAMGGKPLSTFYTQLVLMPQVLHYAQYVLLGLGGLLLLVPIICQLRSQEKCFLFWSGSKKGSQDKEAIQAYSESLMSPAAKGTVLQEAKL

Row | SMILES | activation (HDL uptake increase) | AC40
1 | COc1ccccc1N(C(=O)c1snc(C(N)=O)c1N)C(C(=O)NCCC(C)C)c1ccco1 (stereo not given) | 7.43% (inactive) | –
2 | O=C(Cc1ccsc1)N1CCN(S(=O)(=O)c2cccc(F)c2)CC1 | -4.56% (inactive) | –
3 | O=C(OCc1ccccc1)c1cccc(-c2nnc(-c3ccccc3)o2)c1 | -15.9% (inactive) | –
4 | Cc1cc(C)nc(Nc2ncc(O)n2-c2ccccc2)n1 | -7.64% (inactive) | –
5 | O=C(COC(=O)COc1ccccc1)NCCC1=CCCCC1 | 2.72% (inactive) | –
6 | CC(Oc1ccccc1)C(=O)Nc1cccc(F)c1 (stereo not given) | 5.9% (inactive) | –
7 | CC(C)CCNCC(=O)NC(c1ccccc1)c1ccccc1 | -2.56% (inactive) | –
8 | COc1ccc(CCNC(=S)N2CCN(S(=O)(=O)c3ccc(Cl)cc3)CC2)cc1 | 5.66% (inactive) | –
9 | CCc1nnc(NC(=O)c2nc(S(=O)(=O)Cc3ccc(C)cc3)ncc2Cl)s1 | -22.7% (inactive) | –
10 | CN(C(=O)c1ccccc1Cl)c1ccccc1C(=O)NCc1ccccc1 | -10.9% (inactive) | –
11 | Cc1ccc(C2/C(=C(\O)c3ccc4c(c3)OCCO4)C(=O)C(=O)N2Cc2cccnc2)cc1 (stereo not given) | -7.31% (inactive) | –
12 | O=C(NCC(=O)N1CCN(c2ccccc2)CC1)c1ccc(Br)o1 | -14.4% (inactive) | –
13 | O=C1CCN(S(=O)(=O)c2ccccc2)CCN1CCOCc1cccc(F)c1 | 7.83% (inactive) | –
14 | CC(=O)c1cccc(NC(=O)COC(=O)Cn2cnc3ccccc32)c1 | 12.6% (inactive) | –
15 | COc1ccccc1OCCc1nnc(N)s1 | – | > 35 µM (inactive)
16 | CC(=O)N1C2CCCCC2S[C@H]2CCCCC21 (stereo not given in full) | -4.16% (inactive) | –
17 | Cc1ccc(S(=O)(=O)N(c2cccc(C)c2)C2CCS(=O)(=O)C2)cc1 (stereo not given) | -9.17% (inactive) | –
18 | CC(C)CN(C(=O)CN1C(=O)C2CCCCC2C1=O)c1c(N)n(Cc2ccccc2)c(=O)[nH]c1=O (stereo not given) | -7.25% (inactive) | –
19 | COC(=O)c1oc2ccc(Br)cc2c1NC(=O)CN1CCN(C)CC1 | 4.26% (inactive) | –
20 | O=C(NCCCc1ccccc1)c1ccc(CS(=O)Cc2ccc(Cl)cc2)o1 (stereo not given) | 5.61% (inactive) | –
21 | FC(F)(F)c1ccc(C2[C@H]3CN(Cc4cccnc4)[C@H](c4ccccc4)C34CC2(c2cccnc2)C4)cc1 (stereo not given in full) | – | > 35 µM (inactive)
22 | Cc1ccc(N2C(=O)C(Cc3ccc(O)cc3)NC2=S)cc1C (stereo not given) | -11.4% (inactive) | –

Row | SMILES | activation (HDL uptake increase) | AC40
23 | O=C(CNC(=O)c1cncc(Br)c1)Nc1ccc(F)c(F)c1F | -11% (inactive) | –
24 | O=C(O)CN(Cc1ccco1)S(=O)(=O)c1ccc(F)cc1 | -1.5% (inactive) | –
25 | CN(CC(=O)Nc1cccc(F)c1)C(=O)C1CC(=O)N(CCc2ccccc2)C1 (stereo not given) | -13.2% (inactive) | –
26 | CCc1ccccc1NC(=O)CN1CCC(NC(=O)COC)CC1 | -1.48% (inactive) | –
27 | CC(=O)N1CCN(S(=O)(=O)c2cccc(C(=O)Nc3cc(C(F)(F)F)ccc3N3CCOCC3)c2)CC1 | -3.42% (inactive) | –
28 | CCN1C[C@@H]2[C@@H]3C(=O)N(Cc4ccccc4)C(=O)[C@@H]3[C@](C)(C1=O)N2C(=O)c1ccc(Br)cc1 | 1.77% (inactive) | –
29 | COc1ccc(N(CC(=O)NCc2ccccc2)S(=O)(=O)c2c(C)nn(C)c2C)cc1 | -6.65% (inactive) | –
30 | CCN(CC)C(=O)C1CC(=O)N(c2ccc(OC)cc2)C1c1ccc(OC)cc1 (stereo not given) | -8.42% (inactive) | –
31 | O=C(NCc1ccccc1)C1=C[C@H](c2coc3ccccc3c2=O)C[C@H](OCc2ccc(CO)cc2)O1 | -1.3% (inactive) | –
32 | NCCc1nnc(SCc2ccccc2)o1 | 5.16% (inactive) | –
33 | O=C(NCCCCc1ccccc1)C1CC(c2cccc(F)c2)=NO1 (stereo not given) | -4.48% (inactive) | –
34 | CC(C)OC(=O)C1C(=O)CC(C)(O)C(C(=O)OC(C)C)C1c1cccc([N+](=O)[O-])c1 (stereo not given) | -0.289% (inactive) | –
35 | Cc1ccc(C2(CC(=O)N3CCCC3)CCOC(C(C)C)C2)cc1 (stereo not given) | -13.4% (inactive) | –
36 | CN1CCN(CCC(=O)Nc2ccccc2Cl)CC1 | -8.52% (inactive) | –
37 | COc1ccccc1NC(=O)CCC(=O)OCc1cccc([N+](=O)[O-])c1 | -10.7% (inactive) | –
38 | CC(C)NC(=O)C1(O)c2ccccc2NC(=O)N1c1ccc(Cl)c(Cl)c1 (stereo not given) | – | > 35 µM (inactive)
39 | Cn1c(C(=O)N2CCC(C(N)=O)CC2)cc2cc(Cl)ccc21 | -7.74% (inactive) | –
40 | COc1cc(-n2c(C)nc3cc(C(=O)NCC4CCCO4)ccc32)cc(OC)c1OC (stereo not given) | -12.1% (inactive) | –
41 | Cc1ccc(N(C)C(=O)CN(C)S(=O)(=O)c2ccc3c(c2)n(C)c(=O)c(=O)n3C)cc1 | 8.76% (inactive) | –
42 | CC(C)(C)NC(=O)C[C@H]1C[C@H](C(=O)N2CCOCC2)[C@@]2(CCC3CCCC3)c3[nH]c4cc(-c5ccco5)ccc4c3CCN2C1=O | -1.73% (inactive) | –
43 | O=C(CCNS(=O)(=O)c1cccs1)N1CCc2ccccc2C1 | -0.366% (inactive) | –
44 | CC(C)(C)c1ccccc1NC(=O)CN1C(=O)NC2(CCCCCC2)C1=O | -12.4% (inactive) | –

Row | SMILES | activation (HDL uptake increase) | AC40
45 | Cc1ccc(OCCC(=O)OCC(=O)NNC(=O)c2ccccc2)cc1 | 8.09% (inactive) | –
46 | C[C@H](CO)N1C[C@H](C)[C@H](CN(C)C)Oc2ccc(NS(=O)(=O)c3ccc(F)cc3)cc2CC1=O | -7.7% (inactive) | –
47 | CCOC(=O)C1CCCN(S(=O)(=O)c2ccc3ccccc3c2)C1 (stereo not given) | -7.01% (inactive) | –
48 | COc1cccc(CC(=O)Nc2ccccc2C(=O)N2CCOCC2)c1 | 1.38% (inactive) | –
49 | O=C(COC(=O)/C=C/c1cccc(Cl)c1)NCCc1ccc(Cl)cc1Cl | -1.95% (inactive) | –
50 | Cc1c(NC(=O)c2ccc(Br)o2)cccc1C(=O)O | 5.98% (inactive) | –
51 | CC(C)COC(=O)Cc1c(O)c2ccccc2[nH]c1=O | -2.53% (inactive) | –
52 | Nc1ncnc2c1ncn2[C@@H]1O[C@H](CNCc2cccn2-c2nccs2)[C@@H](O)[C@H]1O | 10.3% (inactive) | –
53 | CC(C)c1ccc(OCC(=O)NCCO)cc1 | 1.48% (inactive) | –
54 | O=C(CCSc1nnc(-c2ccco2)o1)Nc1ccc(Cl)cc1 | -2.84% (inactive) | –
55 | CCOC(=O)C1CCCN(C(=S)Nc2cccc(Cl)c2C)C1 (stereo not given) | -3.98% (inactive) | –
56 | COc1ccccc1N1C(=O)CCC1(C#N)c1ccc(Br)cc1 (stereo not given) | 9.71% (inactive) | –
57 | Cc1ccc2nc(N(CCCN(C)C)C(=O)c3ccc(S(=O)(=O)N4CCOCC4)cc3)sc2c1 | -2.75% (inactive) | –
58 | C=C1[C@@H](OC(C)=O)[C@]23C[C@@H]1[C@@H](OC(C)=O)CC2[C@]12C4C[C@H]3[C@H]1N(CC)C[C@]4(C)CC[C@@H]2O (stereo not given in full) | -3.15% (inactive) | –
59 | Cc1ccc(CNC(=O)CCNC(=O)c2ccc(Br)o2)cc1 | -10.8% (inactive) | –
60 | Cc1nc(C2CCCCC2)c(-c2ccccc2)c(N2CCOC2=O)c1C | 1.15% (inactive) | –
61 | CC(C)(C)SCCNC(=O)c1ccc(Cl)c([N+](=O)[O-])c1 | -10.4% (inactive) | –
62 | Cn1cc(CN2CCC(O)CC2)c(-c2ccc(Oc3ccccc3)cc2)n1 | -5.7% (inactive) | –
63 | CC(C(=O)NCCS(=O)(=O)c1ccc(Br)cc1)S(=O)(=O)c1ccc(Cl)cc1 (stereo not given) | 11.1% (inactive) | –
64 | CCCC(=O)Nc1cc(C(=O)O)ccc1S(=O)(=O)c1ccc(C)cc1 | 1.17% (inactive) | –
65 | O=C(NCc1cnn(-c2ccccc2)c1)C1CCC(=O)N(C2CC2)C1 (stereo not given) | -6.78% (inactive) | –
66 | CC(C)(C)OC(=O)C[C@H]1C/C=C\C[C@H](CC(=O)NCCO)C(=O)NCCOC1=O | -2.75% (inactive) | –

Row | SMILES | activation (HDL uptake increase) | AC40
67 | Cc1[nH]c2ccccc2c1C(=O)CSC(=S)N(C)C1CCCCC1 | -5.9% (inactive) | –
68 | COc1ccc2c(c1)C(C)(CCN)C(=O)N2C (stereo not given) | -0.472% (inactive) | –
69 | COc1ccc(NC(=O)C(NC(=O)Cc2cccs2)c2ccc(C)cc2)cc1 (stereo not given) | 2.03% (inactive) | –
70 | CCC(C)(C)NC(=O)C(c1cccnc1)N(CCOC)C(=O)Cn1nnc2ccccc21 (stereo not given) | -4.87% (inactive) | –
71 | O=C(CC(c1ccccc1)c1ccco1)Nc1nccs1 (stereo not given) | 4.67% (inactive) | –
72 | CN1CCN(C(=O)C2CCN(S(=O)(=O)c3ccc4c(c3)oc(=O)n4C)CC2)CC1 | -0.287% (inactive) | –
73 | COC(=O)Cc1csc(Nc2ccccc2)n1 | 0.176% (inactive) | –
74 | CN(C)S(=O)(=O)c1ccc(N2CCCC2)c(C(=O)NC2CCC(O)CC2)c1 (stereo not given) | -3.29% (inactive) | –
75 | COc1ccc(NC(=O)C(Sc2nnc3ccccn23)c2ccccc2)cc1Cl (stereo not given) | -16.3% (inactive) | –
76 | CCCN1CCC(NC(=O)C2CCCCC2C(=O)O)CC1 (stereo not given) | -8.02% (inactive) | –
77 | COc1ccc(CC(=O)N(C)Cc2ccc(C(C)(C)C)cc2)cc1S(=O)(=O)N1CCOCC1 | – | > 35 µM (inactive)
78 | CCN1CCN(C(=O)C2CCC(=O)N(Cc3cccc(C(F)(F)F)c3)C2)CC1 (stereo not given) | -0.502% (inactive) | –
79 | NC(=O)C1CCN(C(=O)C2CC(=O)N(Cc3ccccc3)C2)CC1 (stereo not given) | -2.16% (inactive) | –
80 | Cn1nnnc1SCCNC(=O)C1CCC(=O)N(Cc2ccccc2F)C1 (stereo not given) | -10.7% (inactive) | –
81 | CC(C)CCNC(=O)c1onc(CSc2ccncc2)c1C(=O)NCCC(C)C | 3.64% (inactive) | –
82 | COCCN(Cc1nnc(-c2cccs2)o1)C(=O)c1cccc(S(=O)(=O)N2CCOCC2)c1 | -7.49% (inactive) | –
83 | CCCCN(C(=O)c1cc2c(s1)CCC2)c1c(N)n(CC(C)C)c(=O)[nH]c1=O | -6.82% (inactive) | –
84 | CCOc1cc(N2CCOCC2)c(OCC)cc1NC(=O)CSc1cccc[n+]1[O-] | -6.79% (inactive) | –
85 | Cc1ccc(OCC(=O)OC(C)C(=O)NC2CCCCC2C)cc1C (stereo not given) | – | > 35 µM (inactive)
